Experimental data reported in ChEMBL document CHEMBL1152238, “Perylene side chains modulate G-quadruplex conformation in biologically relevant DNA sequences” (Bioorg Med Chem, 2008).
Calls of active or inactive are those of the source. No cut-off for these calls is given here.

Legend:
Homo sapiens [1] = species on record: Homo sapiens; assay: Binding affinity to 4GGG sequence of human telomeric DNA assessed as intramolecular folding leading to G-quadruplex formation at 25 degC after 30 mins by electrophoretic mobility shift assay
Homo sapiens [2] = species on record: Homo sapiens; assay: Binding affinity to 42GGG sequence of human telomeric DNA assessed as G-quadruplex formation at 90 degC after 10 mins by electrophoretic mobility shift assay
Homo sapiens [3] = species on record: Homo sapiens; assay: Binding affinity to double stranded 4GGG sequence of human telomeric DNA assessed as G-quadruplex formation at 0.1 to 10 uM at 37 degC after 24 hrs by electrophoretic mobility shift assay
[4] = Binding affinity to pu27 sequence of c-myc DNA assessed as intramolecular folding leading to G-quadruplex formation at 25 degC after 30 mins by electrophoretic mobility shift assay
Homo sapiens [5] = species on record: Homo sapiens; assay: Binding affinity to 4GGG sequence of human telomeric DNA assessed as G-quadruplex formation at 14 uM at 25 degC after 30 mins during thermal cycling by circular dichroism spectroscopy
Homo sapiens [6] = species on record: Homo sapiens; assay: Binding affinity to 1GGG sequence of human telomeric DNA assessed as G-quadruplex stabilization at 25 degC after 30 mins by electrophoretic mobility shift assay in presence of Li+ ions
[7] = Binding affinity to 1GGG sequence of human telomeric DNA assessed as intramolecular folding leading to G-quadruplex formation at 25 degC after 30 mins by electrophoretic mobility shift assay
Homo sapiens [8] = species on record: Homo sapiens; assay: Binding affinity to 2GGG sequence of human telomeric DNA assessed as G-quadruplex stabilization at 25 degC after 30 mins by electrophoretic mobility shift assay in presence of Li+ ions
Homo sapiens [9] = species on record: Homo sapiens; assay: Binding affinity to 4GGG sequence of human telomeric DNA assessed as G-quadruplex formation at 14 uM at 25 degC after 30 mins by circular dichroism spectroscopy in presence of K+ ions
[10] = Binding affinity to 2GGG sequence of human telomeric DNA assessed as intramolecular folding leading to G-quadruplex formation at 25 degC after 30 mins by electrophoretic mobility shift assay
Nucleic Acid [11] = assay: Binding affinity to negatively supercoiled Escherichia coli pBR322 DNA assessed as DNA intercalation at 20 to 50 uM at pH 6 after 30 mins by DNA unwinding assay; format: nucleic-acid assay
[12] = Binding affinity to pu27 sequence of c-myc DNA assessed as G-quadruplex formation at 90 degC […] after 10 mins by electrophoretic mobility shift assay
Escherichia coli = assay: Binding affinity to negatively supercoiled Escherichia coli pBR322 DNA assessed as self-aggregation at 10 to 20 uM at 37 degC after 30 mins by DNA unwinding assay
Homo sapiens [13] = species on record: Homo sapiens; assay: Binding affinity to 4GGG sequence of human telomeric DNA assessed as G-quadruplex stabilization at 25 degC after 30 mins by electrophoretic mobility shift assay in presence of Li+ ions
[14] = Binding affinity to pu27 sequence of c-myc DNA assessed as G-quadruplex stabilization at 25 degC after 30 mins at 25 degC by electrophoretic mobility shift assay in presence of Li+ ions
Homo sapiens [15] = species on record: Homo sapiens; assay: Binding affinity to 42GGG sequence of human telomeric DNA assessed as G-quadruplex formation at 25 degC upto 20 uM after 30 mins by electrophoretic mobility shift assay
Homo sapiens [16] = species on record: Homo sapiens; assay: Binding affinity to unfolded 4GGG sequence of human telomeric DNA assessed as G-quadruplex formation at 25 degC by circular dichroism spectroscopy in presence of Li+ ions
Homo sapiens [17] = species on record: Homo sapiens; assay: Binding affinity to 2GGG sequence of human telomeric DNA assessed as stabilization of dimeric form of G-quadruplex DNA at 95 degC for 5 mins by electrophoretic mobility shift assay
[18] = Binding affinity to double stranded pu27 sequence of c-myc DNA assessed as G-quadruplex formation at 14 uM at 25 degC after 30 mins during thermal cycling by circular dichroism spectroscopy
Homo sapiens [19] = species on record: Homo sapiens; assay: Binding affinity to 4GGGtail sequence of human telomeric DNA assessed as G-quadruplex formation at 0.1 to 10 uM at 37 degC after 24 hrs by electrophoretic mobility shift assay
Homo sapiens [20] = species on record: Homo sapiens; assay: Binding affinity to 2GGG sequence of human telomeric DNA assessed as G-quadruplex formation at 90 degC upto 15 uM after 10 mins by electrophoretic mobility shift assay
Homo sapiens [21] = species on record: Homo sapiens; assay: Binding affinity to 2GGG sequence of human telomeric DNA assessed as G-quadruplex formation at 25 degC upto 15 uM after 30 mins by electrophoretic mobility shift assay
Homo sapiens [22] = species on record: Homo sapiens; assay: Binding affinity to 2GGG sequence of human telomeric DNA assessed as G-quadruplex formation at 25 degC upto 15 uM after 24 hr by electrophoretic mobility shift assay
[23] = Binding affinity to double stranded pu27 sequence of c-myc DNA assessed as melting temperature at 14 uM at 25 degC after 30 mins by circular dichroism spectroscopy in presence of K+ ions
Homo sapiens [24] = species on record: Homo sapiens; assay: Binding affinity to 4GGG sequence of human telomeric DNA assessed as melting temperature at 14 uM at 25 degC after 30 mins by circular dichroism spectroscopy in presence of K+ ions
Homo sapiens [25] = species on record: Homo sapiens; assay: Binding affinity to 2GGG sequence of human telomeric DNA assessed as G-quadruplex formation at 14 uM at 25 degC after 30 mins by circular dichroism spectroscopy
Homo sapiens [26] = species on record: Homo sapiens; assay: Binding affinity to 1GGG sequence of human telomeric DNA assessed as G-quadruplex formation at 14 uM at 25 degC after 30 mins by circular dichroism spectroscopy
Nucleic Acid [27] = assay: Binding affinity to negatively supercoiled Escherichia coli pBR322 DNA assessed as DNA intercalation at 10 to 20 uM at pH 8 after 30 mins by DNA unwinding assay; format: nucleic-acid assay
[28] = Binding affinity to double stranded pu27 sequence of c-myc DNA assessed as intramolecular folding leading to G-quadruplex formation at 0.1 to 10 uM at 37 degC after 24 hrs by electrophoretic mobility shift assay
[29] = Binding affinity to double stranded pu27 sequence of c-myc DNA assessed as intramolecular folding leading to G-quadruplex formation at 0.1 to 10 uM at 95 degC after 24 hrs by electrophoretic mobility shift assay

Structure (SMILES)	Activity (Homo sapiens [1])	Activity (Homo sapiens [2])	Activity (Homo sapiens [3])	Activity [4]	Activity (Homo sapiens [5])	Activity (Homo sapiens [6])	EC50 [7] [µM]	Activity (Homo sapiens [8])	Activity (Homo sapiens [9])	EC50 [10] [µM]	Activity (Nucleic Acid [11])	Activity [12]	Activity (Escherichia coli)	Activity (Homo sapiens [13])	Activity [14]	Activity (Homo sapiens [15])	Activity (Homo sapiens [16])	Activity (Homo sapiens [17])	Activity [18]	Activity (Nucleic Acid [27])	also measured
c1cc2c3ccc4c5c(ccc(c6ccc7c(c1CN(CCN1CCCCC1)C7)c26)c53)CN(CCN1CCCCC1)C4	Active	inactive	inactive	Active	inactive	Active	25	Active	Active	20	Active	inactive	inactive	Active	Active	inactive	Active				
O=C1c2ccc3c4ccc5c6c(ccc(c7ccc(c2c37)C(=O)N1CCN1CCCCC1)c64)C(=O)N(CCN1CCCCC1)C5=O	Active	inactive	inactive	Active	inactive	Active	> 100	Active	Active	90	Active	inactive	inactive	Active	Active	inactive	Active	Active	Active		Activity (Homo sapiens [19]): Active; Activity (Homo sapiens [20]): Active; Activity (Homo sapiens [21]): Active; Activity (Homo sapiens [22]): Active
C[N+](C)(C)CCN1C(=O)c2ccc3c4ccc5c6c(ccc(c7ccc(c2c37)C1=O)c64)C(=O)N(CC[N+](C)(C)C)C5=O			inactive		Active	Active	10.8	Active	Active	12	Active	inactive		Active	Active					Active	Tm [23]: 83 °C; Tm (Homo sapiens [24]): 64 °C; Activity (Homo sapiens [25]): inactive; Activity (Homo sapiens [26]): inactive
O=C1c2ccc3c4ccc5c6c(ccc(c7ccc(c2c37)C(=O)N1CCNCCO)c64)C(=O)N(CCNCCO)C5=O		Active	inactive		inactive	Active	11	Active	Active	3.8	Active	inactive		Active	Active	Active				Active	
CN(C)CCN1C(=O)c2ccc3c4ccc5c6c(ccc(c7ccc(c2c37)C1=O)c64)C(=O)N(CCN(C)C)C5=O		Active	inactive		inactive	Active	8.7	Active	Active	4	Active	inactive		Active	Active	Active		Active	Active	Active	Activity (Homo sapiens [19]): inactive; Activity (Homo sapiens [20]): Active; Activity [28]: inactive; Activity (Homo sapiens [21]): Active; Activity (Homo sapiens [22]): Active; Activity [29]: inactive
